# Results: patent US20180008688A1, “METHOD AND COMPOSITIONS FOR ENHANCING IMMUNOTHERAPEUTIC TREATMENT OF A CANCER” (Augusta University Research Institute, Inc., priority 2016, published 2018)
# Entries after “also recorded” stand apart in the source; their conditions may differ.
# Key:
# E.G7 tumors = test: E.G7/oxaliplatin model in LysMcre/p53-KO hosts with or without nutlin-3a; assay type: in vivo, mouse; conditions: mice lacking myeloid p53; FIG. 8D
# From the text: To test whether the relevant target of nutlin in tumors was specifically the p53 expression in myeloid dendritic cells, the E.G7/oxaliplatin model in LysMcre/p53-KO hosts was used. If mice lacked the relevant p53 in tumor-associated myeloid cells, then LysMcre/p53-KO mice should lose all anti-tumor effect of nutlin. For these studies, mice received congenically-marked OT-I cells to monitor whether T cells were still rescued by IL-12 in tumors.
# Mice with a nuclear-localizing Cre-recombinase knock-in replacing one copy of the Lyz2 gene (Clausen et al., (1999) Transgenic Res. 8: 265-277) (strain 004781, Jax) were crossed as heterozygotes with homozygous p53^flox/flox mice (Marino et al., (2000) Genes Dev. 14: 994-1004) (strain 008462, Jax).
# (§1) Tumor implantation was performed as described (Sharma et al., (2007) J. Clin. Invest. 117: 2570-2582). VO-OHpic was given at 10 mg/kg/day i.p., in 10% DMSO/PBS. Cyclophosphamide was given at 150 mg/kg i.p×1 dose; and oxaliplatin at 5 mg/kg i.p×1 dose. Nutlin-3a was administered daily at 10 mg/kg/day i.p. For checkpoint blockade, mice received anti-CTLA-4 plus a cocktail of antibodies against the PD-1 pathway. Vaccines and T cell adoptive transfer studies were performed as described (Sharma et al., (2015) Sci. Advances. 1: e1500845).
# OT-I T cells = test: Autoimmune diabetes in RIP-mOVA mice after OT-I T cell transfer (no tumor); assay type: in vivo, mouse
# Protocol: Accordingly and without wishing to be bound by any one hypothesis, it is likely that p53 can play two different immunologic roles, depending on the context (tumor versus normal tissues). […] Following T cell transfer, these mice progressively developed lethal autoimmune diabetes. However, if mice were treated with nutlin-3a diabetes formation was suppressed and the mice remained healthy.
# B16-OVA tumors = test: RIP-mOVA mice with OT-I cells and B16-OVA tumors, immunotherapy with or without nutlin-3a; assay type: in vivo
# Protocol: It was then determined which of these opposing effects would prevail when the same antigen was both a tumor-antigen and self-antigen. RIP-mOVA mice expressing OVA as a self-antigen were implanted with B16-OVA tumors expressing OVA as a tumor antigen (Falo. Jr. et al., (1995) Nat. Med. 1: 649-653). Prior to tumor implantation, all mice received adoptive transfer of congenically-marked OT-I cells. After tumors were established, mice were treated with immunotherapy (PTEN-inhibitor plus chemotherapy), with or without nutlin-3a.
# RIP-mOVA mice bearing B16-OVA tumors were treated with a cocktail of blocking antibodies against CTLA-4 plus PD-1, PD-L1 and PD-L2, with or without concurrent nutlin-3a.
# as §1
# The immune-activating effect of p53 is context-specific for the tumor milieu: The immunogenic effect of nutlin-3a seemed paradoxical because in most settings p53 is thought to be immunosuppressive (Munoz-Fontela et al., (2016) Nat. Rev. lmmunol. 16: 741-750; Thomasova et al., (2012) Neoplasia 14: 1097-1101). It was considered that p53 actually plays two roles in the immune system: a self-tolerance role in normal tissues during physiologic cell death (Yoon et al., (2015) Science 349: 1261669); but a pro-inflammatory role in certain specialized contexts such as immune-surveillance of tumors (Munoz-Fontela et al., (2016) Nat. Rev. lmmunol. 16: 741-750). To test this, a model in which OVA-expressing tumors were implanted in RIP-mOVA mice (which constitutively express OVA in pancreatic islet cells) was used. OVA thus became both a normal tissue antigen and a tumor antigen.
# T cells = test: Purified T cells activated with anti-CD3/CD28 with nutlin, IL-12, MG-132; assay type: cell-based, mouse
# From the text: Regulation of p53 is complex, and it can be targeted by multiple pathways besides MDM2 (Chao C. C. (2015) Clin. Chim. Acta 438: 139-147). If IL-12 is rescuing T cells from nutlin, one possibility is that IL-12 might activate an alternative pathway of p53 degradation, not dependent on MDM2. To test this, purified T cells were activated (without any antigen-presenting cells or other cells) using anti-CD3/CD28 antibodies. T cells were activated in the presence or absence of nutlin with or without addition of recombinant IL-12.
# Finally, to test the hypothesis that IL-12 targeted p53 for proteolytic degradation via an alternated pathway, proteasomal function was inhibited using MG-132. T cells were activated using immobilized CD3/CD28 as above. […] CFSE proliferation tracked inversely with p53 levels. […] While MG-132 affects many intracellular pathways besides p53, these findings support the basic hypothesis that IL-12 bypasses nutlin by targeting p53 for degradation via an alternative route.
# [1] = nutlin added to checkpoint blockade
# [2] = nutlin-3a 10 mg/kg/day added to CTX/VO-OHpic, FIG. 13
# [3] = nutlin-3a 10 mg/kg/day added to CTX/VO-OHpic, FIG. 13, 10 mg/kg/day
# [4] = nutlin, anti-CD3/CD28 activation
structure (smiles),measurement,setting,value
"COc1ccc(C2=NC(c3ccc(Cl)cc3)C(c3ccc(Cl)cc3)N2C(=O)N2CCNC(=O)C2)c(OC(C)C)c1 (single isomer, unassigned; (-)) [nutlin-3a, (−)-4-(4,5-Bis(4-chlorophenyl)-2-(2-isopropoxy-4-methoxyphenyl)-4,5-dihydro-1H-imidazole-1-carbonyl)piperazin-2-one]",anti-tumor effect of nutlin-3a,E.G7 tumors,lost all anti-tumor effects; also recorded: lost all ability to enhance anti-tumor immunity
same,level of p53 in OT-I cells in pancreatic LNs,"OT-I T cells; mouse, in vivo",increased
same,diabetes formation,OT-I T cells; nutlin-3a treatment after OT-I transfer,suppressed
same,expression of granzyme B in OT-I cells,OT-I T cells; pancreatic LNs,decreasing
same,Ly6c+CD103+ dendritic cells in the tumors,B16-OVA tumors; [1],maintained expression
same,anti-tumor effect,B16-OVA tumors; [1],significantly enhancing and prolonging the anti-tumor effect
same,autoimmune diabetes,"B16-OVA tumors; nutlin added to checkpoint blockade (CTLA-4 plus PD-1, PD-L1, PD-L2 antibodies)",protected recipient subjects from autoimmune diabetes
same,p53 in OT-I T cells in pancreatic LNs,B16-OVA tumors; nutlin added to immunotherapy,increase p53
same,p53 in OT-I T cells in TDLNs,"B16-OVA tumors; nutlin added to immunotherapy, same animals",complete loss of detectable p53 expression
same,anti-tumor effect,B16-OVA tumors; [2],markedly enhanced the anti-tumor response
same,autoimmune diabetes,B16-OVA tumors; [2],fully protected from diabetes
same,anti-tumor effect,B16-OVA tumors; [3],enhanced and prolonged
same,autoimmune diabetes,B16-OVA tumors; [3],protected the mice from lethal autoimmunity
same,T cell proliferation,T cells; [4],suppressed proliferation of T cells
same,p53 levels in activated T cells,T cells; [4],"progressively restored, and then markedly elevated"
same,p53 levels in activated T cells,"T cells; nutlin, anti-CD3/CD28 activation, listed as Nutlin",blocked the down-regulation of p53
same,effect of nutlin on p53-deficient T cells,T cells; p53-deficient T cells,no inhibitory effect
